Experimental data as given in patent US20130209543A1, “ENHANCED TREATMENT REGIMENS USING MTOR INHIBITORS” (Intellikine LLC, priority 2011, published 2013).

Assay: Phase I clinical trial: plasma pharmacokinetics
Format: in vivo, human
Conditions: for AUC / Cmax: oral
Method: Adult patients with histologically confirmed advanced solid tumors were enrolled in a 3+3 dose escalation Phase I study evaluating 3 intermittent schedules of administration for compound A: QW (once weekly), QD×3d QW (3 days on 4 days off), and QD×5d QW (5 days on 2 days off), in comparison with daily dosing (QD). Safety, maximum tolerated dose (MTD), pharmacokinetics (PK) and preliminary antitumor activity were evaluated.

Question: Which AUC (human, plasma, 6 mg QD) does the source give for `CC(C)n1nc(-c2ccc3oc(N)nc3c2)c2c(N)ncnc21` [compound A] here?
Answer: 8 µM·h

Question: And the Cmax (human, plasma, 6 mg QD)?
Answer: 150 nM

Question: What about the AUC (human, plasma, 10 mg Q5D) of the same compound?
Answer: 10 µM·h

Question: What about the Cmax (human, plasma, 10 mg Q5D) of the same compound?
Answer: 250 nM

Question: And the AUC (human, plasma, 13 mg Q5D)?
Answer: 13 µM·h

Question: What about the Cmax (human, plasma, 13 mg Q5D) of the same compound?
Answer: 300 nM

Question: And the AUC (human, plasma, 16 mg Q3D)?
Answer: 8 µM·h

Question: And the Cmax (human, plasma, 16 mg Q3D)?
Answer: 350 nM

Question: And the AUC (human, plasma, 20 mg Q3D)?
Answer: 10 µM·h

Question: And the Cmax (human, plasma, 20 mg Q3D)?
Answer: 400 nM

Question: What about the AUC (human, plasma, 30 mg QW) of the same compound?
Answer: 5 µM·h

Question: What about the Cmax (human, plasma, 30 mg QW) of the same compound?
Answer: 600 nM

Question: And the AUC (human, plasma, 40 mg QW)?
Answer: 6.5 µM·h

Question: And the Cmax (human, plasma, 40 mg QW)?
Answer: 700 nM

Question: And the Tmax (human, plasma, oral doses, patients)?
Answer: 0.5 to 4 h

Question: What about the half-life (human, plasma, oral doses, patients, read-out: mean elimination plasma t1/2 (converted)) of the same compound?
Answer: 8 h

Question: And the “Plasma exposures (Cmax and AUC0-24) versus dose” value (oral doses)?
Answer: dose-linear plasma PK
